The assay relates to NCI-H716 cells, GLP-1 secretion. In words: potency on glucagon-like peptide-1 release, NCI-H716 cell line, dose-response curve, half-maximal inhibitory concentration (AID 1117344).

Calls of active or inactive are those of the source. The rule behind the calls is not given here. A value given as a limit tells only on which side of the number the result lay.

Consider `OCCN1CCN(CC/C=C2/c3ccccc3Sc3ccc(C(F)(F)F)cc32)CC1`, for which the IC50 is 32.2 µM (inactive).
Next, `CCCCCCCCCCCC(=O)[O][Sn]([CH2]CCC)([CH2]CCC)[O]C(=O)CCCCCCCCCCC`: > 40 µM (inactive).
Next, `CCCCCCCCCCCCCC[N+](C)(C)C`: 18.6 µM (inactive).
For `CC(=O)[O][Hg][c]1ccccc1`, the IC50 was 9.57 µM (inactive).
For `Cc1ccc([N+](=O)[O-])[c]2c1[O][Hg]2` the value was 9.87 µM (inactive).

For the origin of these results see PubChem BioAssay AID1117344.
